Laboratory results as given in PubChem BioAssay (NCI).
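Exposure lasted 48 hours, with cells grown in 96-well plates and compounds tested at five concentrations. GI50: concentration for 50% inhibition of growth. At the TGI there is no net growth.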

What was measured:
Test in all cases: NCI-60 cell line screen, 48 h
A498 renal = tested on: A498 renal
A549 NSCLC = tested on: A549 NSCLC
CAKI-1 renal = tested on: CAKI-1 renal
COLO 205 colon = tested on: COLO 205 colon
EKVX NSCLC = tested on: EKVX NSCLC
HCT-116 colon = tested on: HCT-116 colon
HT29 colon = tested on: HT29 colon
KM12 colon = tested on: KM12 colon
M14 melanoma = tested on: M14 melanoma
UO-31 renal = tested on: UO-31 renal

| Compound | GI50 (A498 renal) | TGI (A498 renal) | GI50 (A549 NSCLC) | TGI (A549 NSCLC) | GI50 (CAKI-1 renal) | TGI (CAKI-1 renal) | GI50 (COLO 205 colon) | TGI (COLO 205 colon) | GI50 (EKVX NSCLC) | TGI (EKVX NSCLC) | GI50 (HCT-116 colon) | TGI (HCT-116 colon) | GI50 (HT29 colon) | TGI (HT29 colon) | GI50 (KM12 colon) | TGI (KM12 colon) | GI50 (M14 melanoma) | TGI (M14 melanoma) | GI50 (UO-31 renal) | TGI (UO-31 renal) |
| --- | --- | --- | --- | --- | --- | --- | --- | --- | --- | --- | --- | --- | --- | --- | --- | --- | --- | --- | --- | --- |
| COc1cc2c(cc1OCCCCC(=O)Nc1ccc(-c3nc4ccccc4s3)cc1)N=C[C@@H]1CCCN1C2=O | 1870 nM | 4.73 µM | 3.38 µM | 11.2 µM | 2200 nM | 5.96 µM | 1690 nM | 3.07 µM | 2450 nM | 5.52 µM | 1860 nM | 5.78 µM | 2160 nM | 7.75 µM | 2940 nM | 12.4 µM | 1550 nM | 3.18 µM | 1660 nM | 3.66 µM |
| CC(C)[C@@H](C(=O)O[C@@H]1/C=C/C(=O)O[C@@H](C)CCC/C=C/[C@@H]2C[C@H](O)C[C@H]21)[N+](C)(C)C | > 100000 nM | > 100 µM | > 100 µM | > 100 µM | > 100000 nM | > 100 µM | > 100000 nM | > 100 µM | > 100000 nM | > 100 µM | > 100000 nM | > 100 µM | > 100000 nM | > 100 µM | > 100000 nM | > 100 µM | > 100000 nM | > 100 µM | > 100000 nM | > 100 µM |
| O=C1C[C@@H](c2ccccc2)NCCCCN(O)CCCN1 |  | > 100 µM |  | > 100 µM |  | > 100 µM |  | > 100 µM |  | > 100 µM |  | > 100 µM |  | > 100 µM |  | > 100 µM |  | > 100 µM |  | > 100 µM |
| c1ccc(Cn2cc3c(c2)-c2oncc2CC3)cc1 | 3430 nM | > 92.1 µM | 1.48 µM | 97.7 µM | 1970 nM | > 76.3 µM | 467 nM | 2.55 µM | 2740 nM | > 100 µM | 408 nM | > 100 µM | 398 nM | 13.6 µM | 521 nM | 9.2 µM | 528 nM | > 100 µM | 4230 nM | 97.1 µM |
| CC1=CC(=O)c2cccc(NC3=NCCO3)c21 |  | > 100 µM |  | > 100 µM |  | > 100 µM |  | > 100 µM |  | > 100 µM |  | > 100 µM |  | > 100 µM |  | 90.5 µM |  | > 100 µM |  | > 100 µM |
| O=C1Cc2ccccc2N1/N=C\c1ccc(O)cc1 |  | > 100 µM |  | > 100 µM |  | > 100 µM |  | > 100 µM |  | > 100 µM |  | > 100 µM |  | > 100 µM |  | > 100 µM |  | > 100 µM |  | > 100 µM |
| BrP(NC1CCCCCC1)(c1ccccc1)(c1ccccc1)c1ccccc1 |  | 7.26 µM |  | 25.8 µM |  | 13 µM |  | 5.4 µM |  | 35.4 µM |  | > 100 µM |  | 4.66 µM |  | 3.37 µM |  | > 100 µM |  | 17.4 µM |
| COc1ccc(S(=O)(=O)O)cc1NS(=O)(=O)c1ccc(C)cc1 |  | > 100 µM |  | > 100 µM |  | > 100 µM |  | > 100 µM |  | > 100 µM |  | > 100 µM |  | > 100 µM |  | > 100 µM |  | > 100 µM |  | > 100 µM |
| NC(=O)Nc1ccc2ncnc(Nc3ccc(Cl)cc3)c2c1 | 896 nM | 16.2 µM | 18.4 µM | > 100 µM | 1600 nM | 42.2 µM | 30600 nM | > 100 µM | 369 nM | 11.9 µM | 24900 nM | 98.2 µM | 25300 nM | > 100 µM | 33400 nM | > 100 µM | 24400 nM | 68.6 µM | 6960 nM | > 65.6 µM |
| COc1cc(C/C=C/c2ccccc2)c(OC)cc1O |  | > 100 µM |  | > 100 µM |  | 65.7 µM |  | 45.5 µM |  | 33.3 µM |  | 31.1 µM |  | 37.8 µM |  | 30.7 µM |  | 46.4 µM |  | 31.4 µM |
| c1ccc(-c2n(Cc3ccc4ccccc4n3)c3ccccc3[n+]2Cc2ccc3ccccc3n2)cc1 | 147 nM | 1.02 µM | 0.346 µM | 2.06 µM | 1360 nM | 3.37 µM | 181 nM | 0.415 µM | 693 nM | 4.27 µM | 247 nM | 1.19 µM | 221 nM | 1.23 µM | 344 nM | 1.3 µM | 289 nM | 1.43 µM | 1450 nM | 2.89 µM |
| CSc1nc(Cl)c(Br)c(Nc2c[nH]c(=O)[nH]c2=O)n1 |  | 35.7 µM |  | 89.5 µM |  | 3.22 µM |  | 32.9 µM |  | 33.8 µM |  | 29.3 µM |  | 29.4 µM |  | 67.8 µM |  | > 100 µM |  | 37.5 µM |
| CCN(CC)c1ccc(/C=C/C(=O)c2cccc(NS(C)(=O)=O)c2)cc1 | 5390 nM | > 100 µM | > 100 µM | > 100 µM | 7970 nM | > 100 µM | 5280 nM | > 100 µM | 5460 nM | > 100 µM | 3990 nM | > 100 µM | 3150 nM | > 100 µM | 3180 nM | > 100 µM | 4100 nM | > 100 µM | > 100000 nM | > 100 µM |
| COC(=O)[C@]12CC[C@@H](C)[C@H](C)[C@@H]1C1=CC[C@@H]3[C@@]4(C)C(c5ncon5)=C[C@@](C)(CO)C4=CC[C@@]3(C)[C@]1(C)CC2 | 1690 nM | 3.42 µM | 4.48 µM | 15.5 µM | 4060 nM | 26 µM | 1960 nM | 4.15 µM | 2020 nM | 4.37 µM | 1680 nM | 3.2 µM | 1940 nM | 3.88 µM | 1980 nM | 3.99 µM | 2070 nM | 4.88 µM | 1690 nM | 3.2 µM |
| CCOC(=O)CNC(SC)=C(C#N)C#N |  | > 100 µM |  | > 100 µM |  | > 100 µM |  | > 100 µM |  | > 100 µM |  | > 100 µM |  | > 100 µM |  | > 100 µM |  | > 100 µM |  | > 100 µM |
